Test results published in the NIST ThermoML archive (doi:10.1016/j.jct.2005.03.004).

Settings: Liquid

CO [methanol]
Settings	vapor or sublimation pressure [kPa]
298.15 K	16.97
303.15 K	21.88
308.15 K	27.96
313.15 K	35.44
318.15 K	44.54
323.15 K	55.58
